Measurements published in paper PMC8387043, “Host Poly(A) Polymerases PAPD5 and PAPD7 Provide Two Layers of Protection That Ensure the Integrity and Stability of Hepatitis B Virus RNA” (Journal of Virology, 2021).

Columns and labels:
HBV [1] = test: Antiviral assay in HBV-infected primary human hepatocytes (PHH); type: cell-based; conditions: Hepatitis B virus, Hepatocyte
HBV [2] = test: Intracellular HBV pgRNA and sRNA by Northern blotting in HepG2.2.15 cells; type: cell-based, hepatitis B virus; conditions: HepG2.2.15, 48 h, 1,000 nM
Experimental: Total cellular RNA was extracted from HepG2.2.15 or HepAD38 cells treated with or without antiviral compounds using TRIzol reagent according to the manufacturer's directions (Thermo Fisher Scientific, Waltham, MA). Northern blotting was performed as described previously ([1]). Briefly, total RNA was separated in a 1.5% agarose gel and transferred onto an Amersham Hybond-XL membrane (product no. GERPN303S; GE Healthcare, IL, USA). Membranes were probed with an [α-^32P]UTP (PerkinElmer, CT, USA)-labeled minus strand-specific full-length HBV riboprobe (3.2 kb) transcribed from plasmid pSP65_HBV(+) DNA. Membranes were exposed to a phosphoimager screen, and the hybridization signals were quantified using Image Studio software (Li-Cor Biosciences, NE, USA).

in vitro = type: cell-based; conditions: human
Excerpt: TABLE 3 Cytotoxicity of AB-452 against cells derived from various tissues | column: AB-452 CC50 (μM)

recombinant human PAPD7 = biological target: T1, recombinant human PAPD7 (Homo sapiens, UniProt Q5XG87); test: PAPD7 ATP depletion assay; type: biochemical
T1 construct: PAPD7 (amino acids 226 to 558; NM_006999.6); 10xHis (N); Flag (N); TEV cleavage site (N); host or cells: E. coli BL21(DE3), vector pET-24a(+)
Experimental: Molecular cloning, expression, and purification of the recombinant human PAPD5 and PAPD7 proteins were performed at Xtal BioStructures (MA, USA). PAPD5 (amino acids 186 to 518; GenBank accession no. XM_011523275) and PAPD7 (amino acids 226 to 558; GenBank accession no. NM_006999.6) genes comprising of nucleotidyltransferase and PAP-associated domains were codon optimized, synthesized, and inserted in the expression vector pET-24a(+) for E. coli expression with 10×His-Flag-tobacco etch virus (TEV) tags at the N terminus. The pET-24a(+) constructs were transformed into E. coli-competent cells BL21(DE3). […] Expression of protein was induced for 16 h with 0.2 mM IPTG (isopropyl-β-D-thiogalactopyranoside) at 18°C. […] Roche). Cell suspension was sonicated 8 × 20 s at 27 to 30 W (power level, 3.5 to 4.0) with 40-s breaks between each pulse. Lysate was cleared by centrifugation in a 50-ml conical tube at 20,000 × g for 30 min (Fiberlite F13-14 × 50cy rotor in a Sorvall RC6 centrifuge). Supernatant was incubated with Ni-charged MagBeads (GenScript; catalog no. […] Bound proteins were washed with 50 ml binding buffer and eluted in elution buffer containing a gradient of imidazole ranging from 5 to 500 mM. Peak fractions were pooled and stored in 50% glycerol at -80°C. Reactions were carried out in duplicate in 96-well low-profile, skirted, white plates (catalog no. AB0800WL; […] The reaction mixtures were incubated at room temperature for 3 h, and ATP depletion was monitored by using Kinase-Glo luminescent kinase kit following the manufacturer's instructions (catalog no. V6712; Promega, WI, USA).

HBV [3] = test: HBsAg inhibition in PLC/PRF/5 cells; type: cell-based; conditions: Hepatitis B virus
Experimental: AB-452 and RG7834 both belong to the dihydroquinolizinones chemical class. The antiviral activities of AB-452 and its diastereomer ARB-169451 were evaluated using multiple in vitro HBV replication models, including HepG2.2.15 cells (which constitutively express HBV through the integrated viral genome), PLC/PRF/5 cells (a patient-derived hepatocellular carcinoma cell line only expressing HBsAg), and HBV-infected HepG2-NTCP cells or primary human hepatocytes (PHHs) in which viral replication was dependent on cccDNA transcription (Table 1).
HepG2.2.15, HepAD38, and PLC/PRF/5 cells were cultured in Dulbecco’s modified Eagle medium (DMEM)/F12 medium (Corning, NY, USA), supplemented with 10% fetal bovine serum (Gemini, CA, USA), 100 U/ml penicillin, and 100 μg/ml streptomycin. Huh-7 cells (Creative Bioarray, NY, USA) were cultured in RPMI 1640 medium (Basel, Switzerland) containing 10% fetal bovine serum, 100 U/ml penicillin, and 100 μg/ml streptomycin. HepG2-hNTCP-C4 cells were cultured in DMEM medium (Gibco, MA, USA) containing 10% fetal bovine serum and 10 mM HEPES (Gibco).

T1 sequence (Q5XG87 226-558): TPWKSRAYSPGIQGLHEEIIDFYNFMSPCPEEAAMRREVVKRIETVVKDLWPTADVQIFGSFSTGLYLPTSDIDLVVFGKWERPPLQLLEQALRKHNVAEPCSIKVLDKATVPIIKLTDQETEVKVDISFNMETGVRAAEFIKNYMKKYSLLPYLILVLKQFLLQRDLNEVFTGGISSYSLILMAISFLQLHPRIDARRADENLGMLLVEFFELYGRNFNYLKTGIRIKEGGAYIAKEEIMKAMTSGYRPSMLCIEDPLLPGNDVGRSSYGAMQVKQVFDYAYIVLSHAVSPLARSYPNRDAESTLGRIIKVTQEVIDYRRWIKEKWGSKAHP

Which EC50 (HBV [1]; read-out: HBV DNA EC50) does the source give for `COCCCOc1cc2c(nc1OC)-c1cc(=O)c(C(=O)O)cn1[C@H](C(C)C)C2` [AB-452] here?
Its EC50 is 4.2 ± 3.8 nM.

What about the EC50 (HBV [1]; read-out: HBeAg EC50) of the same compound?
Its EC50 is 3.7 ± 1.3 nM.

What about the EC50 (HBV [1]; read-out: HBsAg EC50) of the same compound?
The EC50 was 3 ± 2.1 nM.

And the “sRNA (%) of untreated controls” value (HBV [2])?
Its value is roughly 18%.

And the CC50 (in vitro)?
The CC50 was greater than 30000 nM.

What about the IC50 (recombinant human PAPD7) of the same compound?
Its IC50 is 498 nM.

What about the EC50 (HBV [3]) of the same compound?
Its EC50 is 2.3 ± 0.36 nM.
